EPA's ToxRefDB 2

Assays:
rat [1] = conditions: Subchronic oral toxicity in rodents, fischer, Feed, dose end: 90 day, group: systemic, systemic / pathology microscopic / stomach / erosion + systemic / pathology microscopic / stomach / hyperkeratosis + systemic / pathology …
rat [2] = conditions: Prenatal developmental toxicity study, sprague dawley, Oral, Gavage/Intubation, dose end: 15 GD
rabbit [3] = conditions: Prenatal developmental toxicity study, other, Oral, Gavage/Intubation, dose end: 18 GD
rabbit [4] = conditions: Prenatal developmental toxicity study, new zealand white, Oral, Gavage/Intubation, dose end: 19 GD
rat [5] = conditions: Multigenerational reproductive toxicity study, sprague dawley, Oral, Feed, dose end: 2 generation
rat [6] = conditions: Subchronic oral toxicity in rodents, sprague dawley, Feed, dose end: 13 week, group: systemic, systemic / in life observation / body weight / body weight gain + systemic / organ weight / kidney / relative to body weight
dog [7] = conditions: Subchronic oral toxicity in nonrodent, beagle, Capsule, dose end: 13 week, group: systemic
mouse = conditions: Carcinogenicity, cd1, Oral, Feed, dose end: 18 month, group: systemic
dog [8] = conditions: Chronic toxicity, beagle, Oral, Capsule, dose end: 52 week, group: systemic
rat [9] = conditions: Combined chronic toxicity/carcinogenicity, sprague dawley, Oral, Feed, dose end: 2 year, group: systemic
[10] = group: developmental, developmental / developmental malformation / bone / [other] + developmental / developmental malformation / kidney / dilated renal pelvis + …
[11] = group: maternal, systemic / in life observation / body weight / body weight gain + systemic / in life observation / food consumption / food consumption
[12] = group: maternal, systemic / in life observation / body weight / body weight gain + systemic / in life observation / food consumption / food consumption + …
[13] = group: developmental, developmental / developmental malformation / bone / branched + developmental / developmental malformation / bone / full supernumerary
[14] = group: developmental, developmental / developmental malformation / bone / unossified + developmental / developmental malformation / brain / hydrocephalus + …
[15] = group: maternal, reproductive / reproductive performance / aborted / aborted + systemic / in life observation / body weight / body weight gain + systemic / …
[16] = group: offspring, developmental / offspring survival late / viability index / viability index + developmental / offspring survival late / lactation index / …
[17] = group: offspring, developmental / offspring survival late / viability index / viability index + systemic / in life observation / body weight / offspring (pup…
[18] = group: parental, systemic / in life observation / body weight / body weight + systemic / in life observation / body weight / body weight gain + systemic / …
[19] = systemic / pathology microscopic / thymus / involution + systemic / clinical chemistry / alanine aminotransferase (alt/sgpt) / alanine …
[20] = systemic / pathology microscopic / thymus / involution + systemic / pathology microscopic / epididymis / reduced spermatogenesis + systemic…
[21] = systemic / in life observation / mortality / mortality + systemic / pathology microscopic / bone marrow / hyperplasia + systemic / pathology…
[22] = systemic / organ weight / brain / relative to body weight
[23] = systemic / pathology microscopic / liver / pigmentation + systemic / hematology / erythrocyte (rbc) count differential / erythrocyte (rbc…
[24] = systemic / pathology microscopic / liver / pigmentation + systemic / pathology microscopic / epididymis / inflammation + systemic / …
[25] = systemic / pathology gross / liver / foci

CC(C)C1CCC(Cc2ccc(Cl)cc2)C1(O)Cn1cncn1 (stereo unspecified) [Ipconazole]
LEL (rat [1]): 29.9 mg/kg/day
LOAEL (rat [1]): 29.9 mg/kg/day
NEL (rat [1]): 7.22 mg/kg/day
NOAEL (rat [1]): 7.22 mg/kg/day
LEL (rat [2]; [10]): 30 mg/kg/day
LOAEL (rat [2]; [10]): 30 mg/kg/day
NEL (rat [2]; [10]): 10 mg/kg/day
NOAEL (rat [2]; [10]): 10 mg/kg/day
LOAEL (rat [2]; [11]): 30 mg/kg/day
LEL (rat [2]; [12]): 30 mg/kg/day
NEL (rat [2]; [12]): 10 mg/kg/day
NOAEL (rat [2]; [12]): 10 mg/kg/day
LEL (rabbit [3]; [13]): 50 mg/kg/day
LOAEL (rabbit [3]; [13]): 50 mg/kg/day
NEL (rabbit [3]; [13]): 10 mg/kg/day
NOAEL (rabbit [3]; [13]): 10 mg/kg/day
LEL (rabbit [3]; [11]): 50 mg/kg/day
LOAEL (rabbit [3]; [11]): 50 mg/kg/day
NEL (rabbit [3]; [11]): 10 mg/kg/day
NOAEL (rabbit [3]; [11]): 10 mg/kg/day

CCc1c(C(=O)[O-])c(=O)cnn1-c1ccc(Cl)cc1.[K+] [Clofencet-potassium]
LEL (rabbit [4]; [14]): 500 mg/kg/day
LOAEL (rabbit [4]; [14]): 500 mg/kg/day
NEL (rabbit [4]; [14]): 150 mg/kg/day
NOAEL (rabbit [4]; [14]): 150 mg/kg/day
LEL (rabbit [4]; [15]): 500 mg/kg/day
LOAEL (rabbit [4]; [15]): 500 mg/kg/day
NEL (rabbit [4]; [15]): 150 mg/kg/day
NOAEL (rabbit [4]; [15]): 150 mg/kg/day
LEL (rat [5]; [16]): 393 mg/kg/day
LOAEL (rat [5]; [16]): 393 mg/kg/day
NEL (rat [5]; [17]): 38 mg/kg/day
NOAEL (rat [5]; [17]): 38 mg/kg/day
LEL (rat [5]; [18]): 1600 mg/kg/day
LOAEL (rat [5]; [18]): 1600 mg/kg/day
NEL (rat [5]; [18]): 393 mg/kg/day
NOAEL (rat [5]; [18]): 393 mg/kg/day
LEL (rat [6]): 1480 mg/kg/day
LOAEL (rat [6]): 1480 mg/kg/day
NEL (rat [6]): 373 mg/kg/day
NOAEL (rat [6]): 373 mg/kg/day
NEL (dog [7]; [19]): 50 mg/kg/day
NOAEL (dog [7]; [19]): 50 mg/kg/day
LEL (dog [7]; [20]): 200 mg/kg/day
LOAEL (dog [7]; [20]): 200 mg/kg/day
LOAEL (mouse; [21]): 1230 mg/kg/day
NOAEL (mouse; [21]): 501 mg/kg/day
LEL (mouse; [22]): 11.4 mg/kg/day
NEL (mouse; [22]): < 11.4 mg/kg/day
NEL (dog [8]; [23]): 5 mg/kg/day
NOAEL (dog [8]; [23]): 5 mg/kg/day
LEL (dog [8]; [24]): 30 mg/kg/day
LOAEL (dog [8]; [24]): 30 mg/kg/day
LOAEL (rat [9]; systemic / in life observation / clinical signs / urine, discoloration + systemic / pathology gross / lung / foci + systemic / pathology …): 470 mg/kg/day
LEL (rat [9]; [25]): 4.7 mg/kg/day
NEL (rat [9]; [25]): < 4.7 mg/kg/day
NOAEL (rat [9]; systemic / pathology gross / liver / foci + systemic / in life observation / clinical signs / urine, discoloration + systemic / pathology …): 47 mg/kg/day
